Assay results published in US10689340B2, “Substituted indoline derivatives as dengue viral replication inhibitors” (priority 2016, dated 2020).

Experiments:
[1] = in vitro; conditions: African green monkey
[2] = system: DENV-2 16681 strain; assay: DENV-2 antiviral assay (eGFP fluorescence); format: cell-based, Dengue virus; conditions: DENV-2 16681 eGFP, Vero cells, MOI 0.5, 3 days
Protocol: The antiviral activity of all the compounds of the invention was tested against the DENV-2 16681 strain which was labeled with enhanced green fluorescent protein (eGPF). The culture medium consists of minimal essential medium supplemented with 2% of heat-inactivated fetal calf serum, 0.04% gentamycin (50 mg/mL) and 2 mM of L-glutamine. Vero cells, obtained from ECACC, were suspended in culture medium and 25 μL was added to 384-well plates (2500 cells/well), which already contain the antiviral compounds. Typically, these plates contain a 5-fold serial dilution of 9 dilution steps of the test compound at 200 times the final concentration in 100% DMSO (200 nL). […] Finally, each plate contains wells which are assigned as virus controls (containing cells and virus in the absence of compound), cell controls (containing cells in the absence of virus and compound) and medium controls (containing medium in the absence of cells, virus and compounds). To the wells assigned as medium control, 25 μL of culture medium was added instead of Vero cells. Once the cells were added to the plates, the plates were incubated for 30 minutes at room temperature to allow the cells to distribute evenly within the wells. Next, the plates were incubated in a fully humidified incubator (37° C., 5% CO2) until the next day. Then, DENV-2 strain 16681, labeled with eGFP, was added at a multiplicity of infection (MOI) of 0.5. Therefore, 15 μL of virus suspension was added to all the wells containing test compound and to the wells assigned as virus control. In parallel, 15 μL of culture medium was added to the medium and cell controls. Next, the plates were incubated for 3 days in a fully humidified incubator (37° C., 5% CO2). At the day of the read out, the eGFP fluorescence was measured using an automated fluorescence microscope at 488 nm (blue laser). Using an in-house LIMS system, inhibition dose response curves for each compound were calculated and the half maximal effective concentration (EC50) was determined. Therefore, the percent inhibition (I) for every test concentration is calculated using the following formula: I=100*(ST-SCC)/(SVC-SCC); ST, SCC and SVC are the amount of eGFP signal in the test compound, cell control and virus control wells, respectively. The EC50, represents the concentration of a compound at which the virus replication is inhibited with 50%, as measured by a 50% reduction of the eGFP fluorescent intensity compared to the virus control. The EC50 is calculated using linear interpolation (Table 1).

[3] = system: Vero cells; conditions: African green monkey
[4] = Dengue virus, DENV2, Vero, 72 h

Row | SMILES | CC50 [1] | EC50 [2, 4] | EC50 [2] | CC50 [3]
1 | COc1cc(NC(C(=O)N2CCc3ccc(C(F)(F)F)cc32)c2ccc(F)cc2)cc(OCCCC(=O)O)c1 (racemic) [Compound 1, 4-(3-((1-(4-fluorophenyl)-2-oxo-2-(6-(trifluoromethyl)-indolin-1-yl)ethyl)amino)-5-methoxyphenoxy)butanoic acid] | > 25000 nM | 2.1 nM | – | –
2 | COc1cc(NC(C(=O)N2CCc3ccc(OC(F)(F)F)cc32)c2ccc(F)cc2)cc(OCCCC(=O)O)c1 (racemic) [Compound 2, 4-(3-((1-(4-fluorophenyl)-2-oxo-2-(6-(trifluoromethoxy)indolin-1-yl)ethyl)amino)-5-methoxyphenoxy)butanoic acid] | 12000 nM | 0.55 nM | – | –
3 | COc1cc(NC(C(=O)N2CCc3ccc(OC(F)(F)F)cc32)c2ccc(Cl)cc2)cc(OCCCC(=O)O)c1 (racemic) [Compound 4, 4-(3-((1-(4-chlorophenyl)-2-oxo-2-(6-(trifluoromethoxy)indolin-1-yl)ethyl)amino)-5-methoxyphenoxy)butanoic acid] | 10000 nM | 0.15 nM | – | –
4 | COc1cc(NC(C(=O)N2CCc3cc(OC)c(C(F)(F)F)cc32)c2ccc(Cl)cc2)cc(OCCCC(=O)O)c1 (racemic) [Compound 5, 4-(3-((1-(4-chlorophenyl)-2-(5-methoxy-6-(trifluoromethyl)indolin-1-yl)-2-oxoethyl)amino)-5-methoxyphenoxy)butanoic Acid] | 13000 nM | 0.62 nM | – | –
5 | COc1cc(NC(C(=O)N2CCc3ccc(C(F)(F)F)cc32)c2ccc(Cl)cc2OC)cc(OCCCC(=O)O)c1 (racemic) [Compound 6, 4-(3-((1-(4-chloro-2-methoxyphenyl)-2-oxo-2-(6-(trifluoro-methyl)indolin-1-yl)ethyl)amino)-5-methoxyphenoxy)butanoic acid] | 12000 nM | 0.31 nM | – | –
6 | COc1cc(NC(C(=O)N2CCc3cc(OC)c(C(F)(F)F)cc32)c2ccc(Cl)cc2OC)cc(OCCCC(=O)O)c1 (racemic) [Compound 7, 4-(3-((1-(4-chloro-2-methoxyphenyl)-2-(5-methoxy-6-(trifluoromethyl)indolin-1-yl)-2-oxoethyl)amino)-5-methoxyphenoxy)butanoic acid] | 12000 nM | 0.47 nM | – | –
7 | COc1cc(NC(C(=O)N2CCc3ccc(OC(F)(F)F)cc32)c2ccc(Cl)cc2OC)cc(OCCCC(=O)O)c1 (racemic) [Compound 8, 4-(3-((1-(4-chloro-2-methoxyphenyl)-2-oxo-2-(6-(trifluoro-methoxy)indolin-1-yl)ethyl)amino)-5-methoxyphenoxy)butanoic acid] | 12000 nM | 0.13 nM | – | –
8 | COc1cc(NC(C(=O)N2CCc3ccc(C(F)(F)F)cc32)c2ccc(Cl)cc2F)cc(OCCCC(=O)O)c1 (racemic) [Compound 9, 4-(3-((1-(4-chloro-2-fluorophenyl)-2-oxo-2-(6-(trifluoromethyl)indolin-1-yl)ethyl)amino)-5-methoxy-phenoxy)butanoic acid] | 11000 nM | 0.96 nM | – | –
9 | COc1cc(NC(C(=O)N2CCc3ccc(OC(F)(F)F)cc32)c2ccc(Cl)cc2F)cc(OCCCC(=O)O)c1 (racemic) [Compound 10, 4-(3-((1-(4-chloro-2-fluorophenyl)-2-oxo-2-(6-(trifluoromethoxy)indolin-1-yl)ethyl)amino)-5-methoxy-phenoxy)butanoic acid] | 10000 nM | 0.24 nM | – | –
10 | COc1cc(NC(C(=O)N2CCc3cc(OC)c(C(F)(F)F)cc32)c2ccc(Cl)cc2F)cc(OCCCC(=O)O)c1 (racemic) [Compound 11, 4-(3-((1-(4-chloro-2-fluorophenyl)-2-(5-methoxy-6-(trifluoromethyl)indolin-1-yl)-2-oxoethyl)amino)-5-methoxyphenoxy)butanoic acid] | 11000 nM | 0.66 nM | – | –
11 | COc1cc(NC(C(=O)N2CCc3cc(OC)c(OC(F)(F)F)cc32)c2ccc(Cl)cc2)cc(OCCCC(=O)O)c1 (racemic) [Compound 12, 4-(3-((1-(4-chlorophenyl)-2-(5-methoxy-6-(trifluoro-methoxy)indolin-1-yl)-2-oxoethyl)amino)-5-methoxyphenoxy)butanoic acid] | 12000 nM | 0.73 nM | – | –
12 | COc1cc(NC(C(=O)N2CCc3ccc(C(F)(F)F)cc32)c2ccc(F)cc2)cc(OCCCC(=O)O)c1 (single isomer, unassigned) [Compound 1A] | > 25000 nM | – | 180 nM | –
13 | COc1cc(NC(C(=O)N2CCc3ccc(OC(F)(F)F)cc32)c2ccc(F)cc2)cc(OCCCC(=O)O)c1 (single isomer, unassigned) [Compound 2A] | 14000 nM | – | 56 nM | –
14 | COc1cc(NC(C(=O)N2CCc3ccc(C(F)(F)F)cc32)c2ccc(Cl)cc2)cc(OCCCC(=O)O)c1 (single isomer, unassigned) [Compound 3A] | 11000 nM | – | 3.9 nM | –
15 | COc1cc(NC(C(=O)N2CCc3ccc(OC(F)(F)F)cc32)c2ccc(Cl)cc2)cc(OCCCC(=O)O)c1 (single isomer, unassigned) [Compound 4A] | 10000 nM | – | 31 nM | –
16 | COc1cc(NC(C(=O)N2CCc3cc(OC)c(C(F)(F)F)cc32)c2ccc(Cl)cc2)cc(OCCCC(=O)O)c1 (single isomer, unassigned) [Compound 5A] | 12000 nM | – | 19 nM | –
17 | COc1cc(NC(C(=O)N2CCc3ccc(C(F)(F)F)cc32)c2ccc(Cl)cc2OC)cc(OCCCC(=O)O)c1 (single isomer, unassigned) [Compound 6A] | 12000 nM | – | 23 nM | –
18 | COc1cc(NC(C(=O)N2CCc3cc(OC)c(C(F)(F)F)cc32)c2ccc(Cl)cc2OC)cc(OCCCC(=O)O)c1 (single isomer, unassigned) [Compound 7A] | 12000 nM | – | 24 nM | –
19 | COc1cc(NC(C(=O)N2CCc3ccc(OC(F)(F)F)cc32)c2ccc(Cl)cc2OC)cc(OCCCC(=O)O)c1 (single isomer, unassigned) [Compound 8A] | 12000 nM | – | 280 nM | –
20 | COc1cc(NC(C(=O)N2CCc3ccc(C(F)(F)F)cc32)c2ccc(Cl)cc2F)cc(OCCCC(=O)O)c1 (single isomer, unassigned) [Compound 9A] | 12000 nM | – | 31 nM | –
21 | COc1cc(NC(C(=O)N2CCc3ccc(OC(F)(F)F)cc32)c2ccc(Cl)cc2F)cc(OCCCC(=O)O)c1 (single isomer, unassigned) [Compound 10B] | – | – | 5.5 nM | 8800 nM
22 | COc1cc(NC(C(=O)N2CCc3cc(OC)c(C(F)(F)F)cc32)c2ccc(Cl)cc2F)cc(OCCCC(=O)O)c1 (single isomer, unassigned) [Compound 11A] | 12000 nM | – | 15 nM | –
23 | COc1cc(NC(C(=O)N2CCc3cc(OC)c(OC(F)(F)F)cc32)c2ccc(Cl)cc2)cc(OCCCC(=O)O)c1 (single isomer, unassigned) [Compound 12A] | 12000 nM | – | 380 nM | –
